# Experimental data published in paper PMC11050087, “Polyphenols from Maackia amurensis Heartwood Protect Neuronal Cells from Oxidative Stress and Prevent Herpetic Infection” (International Journal of Molecular Sciences, 2024).
# Several values for one entry are separate records, joined by “and”; a condition that tells them apart may be missing. Equal entries are not always repeated. Where two headings read alike, the source gives them in different places.
# Columns and labels:
# HSV-1 [1] = system: HSV-1; parameters: method as in PMID 36985562; details: ref [22], cited from earlier work
# HSV-1 [2] = experiment: Treatment of virus-infected cells with polyphenols, CPE inhibition assay; format: cell-based, HSV-1 strain L2
# Protocol: In order to study the mechanism of action of these compounds, two additional schemes of treatment of the virus and Vero cells with polyphenols were applied: the compounds were added before virus infection (pretreatment of cells) and after penetration of the virus into host cells (treatment of infected cells). The fourth method of exposure where the virus and polyphenols were added to cells simultaneously (simultaneous treatment) was previously described by us in [22]. The anti-HSV-1 activity of polyphenols was assessed using the cytopathic effect inhibition (CPE) assay.
# The monolayer of cells was infected with the virus (100 TCID50/mL) at 37 °C for 1 h, and then the cells were washed with PBS (Sigma, Saint-Louis, MO, USA) and treated with different concentrations of the studied compounds and incubated until CPE appeared.
# [3] = system: 6-OHDA-treated Neuro-2a cells; experiment: Apoptosis profile by flow cytometry (Annexin V & Dead Cell Kit); format: cell-based, murine; details: Table 1; polyphenols 10 µM, 6-OHDA 100 µM, 24 h; mean
# Protocol: We investigated the effect of polyphenolic compounds from M. amurensis on apoptosis profile in 6-OHDA-treated Neuro-2a cells by flow cytometry using fluorescent annexin V conjugate as a fluorescent dye. We observed significant changes in apoptosis profile in Neuro-2a cells after 6-OHDA-treatment. […] Polyphenols 3, 6 and 13 diminished the neurotoxic effect of 6-OHDA-treatment.
# The cells were incubated for 1 h in a 6-well plate (5 × 10^4 cells/mL) with polyphenolic compounds (10 µM). Then, 6-OHDA (100 µM) was added, and cell suspension was incubated for 24 h. After incubation, the maintenance media was collected, and the cells were washed by cold PBS twice and incubated with trypsin-EDTA solution. The cell suspension was washed with cold PBS twice again, centrifugated and then used for apoptosis detection by Muse® Annexin V & Dead Cell Kit in accordance with the manufacturer’s instructions (Luminex, Austin, TX, USA). The fluorescence was measured with Muse® Cell Analyzer (Luminex, Austin, TX, USA) and the data were processed by Muse 1.5 Analysis software (Luminex, Austin, TX, USA).
# HSV-1 [4] = experiment: Virucidal activity, RT-PCR assay (HSV-1 pretreated with compounds); format: cell-based, HSV-1 strain L2; details: for Ct: 72 h; for −ΔCt: vs virus control; for activity at 0.1 µg/mL / activity at 1 µg/mL / activity at 10 µg/mL / log reduction at 0.1 µg/mL / log reduction at 1 µg/mL / log reduction at 10 µg/mL: Human alphaherpesvirus 1, 72 h; for activity at 0.1 µg/mL / activity at 1 µg/mL / activity at 10 µg/mL: read-out: 2^−ΔCt; for log reduction at 0.1 µg/mL / log reduction at 1 µg/mL / log reduction at 10 µg/mL: read-out: log10
# Protocol: Vero cells grown on 96-well plates were infected with the virus (100 TCID50/mL), pretreated with polyphenolic compounds at concentrations 0.1, 1 and 10 μg/mL. After 72 h of cell incubation, viral DNA was extracted from the supernatants, and the relative level of HSV-1 DNA was determined using RT-PCR. The effect of polyphenols on the relative level of viral DNA was assessed using the 2^−∆Ct method and reported as fold reduction compared to virus control.
# (§1) The HSV-1 strain L2 obtained from N.F. Gamaleya Federal Research Centre for Epidemiology and Microbiology (Moscow, Russia) was grown in Vero cells as previously described.
# (§2) We determined the direct inhibitory effect of polyphenolic compounds from M. amurensis heartwood on HSV-1 (virucidal effect). We mixed the virus at an infectious dose (100 TCID50/mL) with polyphenolic compounds (from 0.1 to 100 µg/mL) at a ratio of 1:1 (v/v) and incubated for an hour at 37 °C. Then, we infected the monolayer of Vero cells grown on 96-well plates (1 × 10^4 cells/well) with HSV-1 pretreated with the studied compounds. After 1 h adsorption at 37 °C, the cells were washed with phosphate-buffered saline (PBS) and overlaid by the maintenance medium with 1% FBS. The plates were incubated for 72 h at 37 °C in a CO2-incubator. The cytopathic effect (CPE) inhibition assay and real-time reverse transcription-PCR (RT-PCR) assay were used to evaluate virucidal effect of the tested compounds.
# We performed the RT-PCR assay as we previously described in detail in [22]. Briefly, HSV-1 DNA was extracted after incubation from cell supernatants by using the DNA-sorb-AM (K1-12-100-CE) nucleic acid extraction kit (AmpliSens®, Moscow, Russia) according to the manufacturer′s instructions. We treated the supernatants with a lysis solution that contained guanidine chloride (chaotropic agent) in the presence of sorbent (silica particles). As the elution solution was added, the DNA was […] silica particles and separated from the sorbent particles by centrifugation.
# We detected the DNA of HSV-1 in the obtained samples using the AmpliSens® HSV I, II-FRT-100F PCR kit (AmpliSens®, Moscow, Russia) on a real-time PCR instrument Rotor-Gene Q (Qiagen, Hilden, Nordrhein-Westfalen, Germany) according to the manufacturer′s instructions. The PCR reaction conditions were the following: initial denaturation at 95 °C for 15 min; then 5 cycles at 95 °C for 5 s, at 60 °C for 20 s, at 72 °C for 15 s; then 40 cycles at 95 °C for 5 s, at 60 °C for 20 s, and at 72 °C for 15 s. A negative sample was used as the amplification control for each run. The threshold cycle number Ct, was measured as the PCR cycle, where the amount of the amplified target reached the threshold value; the Ct values ≥ 37 indicated the absence of the HSV-1 DNA in the samples. We assessed the anti-HSV-1 activity of the studied compounds by the reduction in the viral DNA levels using the 2^−ΔCt method according to Equation (2):(2) ΔCt=Ctcv−Cttv where Ct is the threshold cycle number measured as the PCR cycle, where the amount of the amplified target reached the threshold value, […]
# [5] = system: 6-OHDA-treated Neuro-2a cells; experiment: ROS analysis in 6-OHDA-treated cells (H2DCF-DA); format: cell-based, murine; details: compound 0.1 µM
# Protocol: We studied the effect of polyphenolic compounds set on ROS levels in 6-OHDA-treated Neuro-2a cells (Figure 5a–d).
# (§3) Figure 5 The effect of polyphenolic compounds isolated from M. amurensis heartwood on ROS levels in Neuro-2a cells treated with 6-OHDA (120 μM) (a–d). Polyphenolic compounds isolated from M. amurensis heartwood were used at concentrations 10, 1, 0.1 μM. The data are presented as means ± SEM of three independent replicates.
# After 24 h of adhesion, Neuro-2a cells (5 × 10^4 cells/mL) were incubated with polyphenolic compounds at concentrations of 0.1, 1, and 10 µM for 1 h. Then, 120 µM of 6-OHDA or 1 mM of PQ were added to each well, and cells were incubated for 1 h. To study the ROS formation, 20 µL of 2,7-dichlorodihydrofluorescein diacetate solution (H2DCF-DA, Sigma-Aldrich, St. Louis, MO, USA) were added to each well, so that the final concentration was 10 µM. Then, the microplate was incubated for 30 min at 37 °C.
# [6] = system: 6-OHDA-treated Neuro-2a cells; experiment: Mitochondrial membrane potential detection (TMRM) in 6-OHDA-treated cells; format: cell-based, murine; details: compound 10 µM; 6-OHDA 120 µM
# Protocol: We determined the effect of polyphenolic compounds from M. amurensis on 6-OHDA-induced mitochondrial dysfunction in Neuro-2a cells (Figure 6a,b).
# as §3, with “6” for “5”, “mitochondrial membrane potential” for “ROS levels”, “(a,b).” for “(a–d).”, “replicates. (*) and (***) indicate, respectively, p < 0.05 and p < 0.001 versus 6-OHDA-treated cells.” for “replicates.”
# The cells were incubated for 1 h in a 96-well plate (1 × 10^4 cells/well) with polyphenolic compounds (0.1, 1 and 10 µM). Then, 6-OHDA (120 µM) was added, and cell suspension was incubated for 1 h. Cells incubated without 6-OHDA and compounds and with 6-OHDA alone were used as positive and negative control, respectively. The tetramethylrhodamine methyl (TMRM) (Sigma-Aldrich, St. Louis, MO, USA) solution (500 nM) was added to each well and cells were incubated for 30 min at 37 °C. The intensity of fluorescence was measured using a PHERAstar FSplate reader (BMG Labtech, Ortenberg, Germany) at λex = 540 nm and λem = 590 nm. The data were processed by MARS Data Analysis v. 3.01R2 (BMG Labtech, Ortenberg, Germany).
# HSV-1 [7] = experiment: Virucidal activity, CPE inhibition assay (HSV-1 pretreated with compounds); format: cell-based, HSV-1 strain L2; details: for IC50: Human alphaherpesvirus 1, virus pretreated with compound (virucidal), Vero cells, 100 TCID50/mL; for SI: ratio of CC50 to IC50, virucidal scheme
# Protocol: The antiviral activity of polyphenols from M. amurensis against HSV-1 was assessed using the cytopathic effect inhibition (CPE) assay. To study the inhibitory effect of polyphenolic compounds directly on the HSV-1 virus (direct virucidal activity), the monolayer of Vero cells grown on 96-well plates (1 × 10^4 cells/well) was infected with the virus (100 TCD50/mL), pretreated with different concentrations of polyphenolic compounds.
# as §1, §2
# We previously described this method in detail in [22]. We performed the MTT assay to evaluate the antiviral activity of polyphenolic compounds. The viral inhibition rate (IR, %) was calculated according to Equation (1):(1) IR, %=Atv−Acv/Acd−Acv×100, where Atv is the absorbance of cells infected with HSV-1 pretreated with the studied compounds,
# We calculated the selectivity index (SI) as the ratio of CC50 to IC50. Experiments were repeated three times.
# [8] = Cytotoxicity against Vero cells (MTT assay); format: cell-based; details: African green monkey
# Protocol: We prepared the stock solutions of the tested compounds (10 mg/mL) in DMSO (Sigma, St. Louis, MO, USA). For the MTT assay and further studies of anti-HSV-1 activity, we diluted the stock solutions with DMEM so that the final concentration of DMSO was 0.5%.
# We used MTT assay to determine the cytotoxic effect of the tested compounds against Vero cells. We performed the MTT assay as previously described.
# [9] = system: 6-OHDA-treated Neuro-2a cells; experiment: 6-OHDA-induced neurotoxicity model, cell viability test (MTT); format: cell-based, murine; details: compounds at 10, 1, 0.1 µM; 6-OHDA 100 µM
# Protocol: Neuro-2a cells were incubated with the studied polyphenolic compounds for 1 h. Then, 100 µM of 6-hydroxydopamine 6-OHDA were added. We determined the percentage of living Neuro-2a cells after treatment with 6-OHDA (Figure 4a–d).
# Figure 4 The effect of polyphenolic compounds isolated from M. amurensis heartwood on the viability of Neuro-2a cells treated with 6-OHDA (100 μM) (a–d). The viability of Neuro-2a cells treated with various compounds and 6-OHDA was measured by the MTT assay. Polyphenolic compounds isolated from M. amurensis heartwood were used at concentrations 10, 1, 0.1 μM. The data are presented as means ± SEM of three independent replicates. (*) indicate p < 0.05 versus 6-OHDA-treated cells.
# After 24 h of adhesion, Neuro-2a cells (5 × 10^4 cells/mL) were treated with polyphenolic compounds at concentrations of 0.1, 1 and 10 μM for 1 h. Then, 100 µM of 6-OHDA or 1 mM of PQ (Sigma-Aldrich, St. Louis, MO, USA) were added. Cells incubated without inductors or with inductors were used as positive and negative control, respectively. Cell viability was measured after 24 h using the MTT assay.
Molecule,Ct (HSV-1 [4]; 0.1 µg/mL),−ΔCt (HSV-1 [4]; 0.1 µg/mL),Ct (HSV-1 [4]; 1 µg/mL),−ΔCt (HSV-1 [4]; 1 µg/mL),anti-HSV-1 activity by RT-PCR (in words) (HSV-1 [4]; 10 µg/mL),Ct (HSV-1 [4]; 10 µg/mL),−ΔCt (HSV-1 [4]; 10 µg/mL),activity at 0.1 µg/mL (HSV-1 [4]),activity at 1 µg/mL (HSV-1 [4]),activity at 10 µg/mL (HSV-1 [4]),log reduction at 0.1 µg/mL (HSV-1 [4]),log reduction at 1 µg/mL (HSV-1 [4]),log reduction at 10 µg/mL (HSV-1 [4]),CC50 [8],IC50 (HSV-1 [7]; CPE assay),SI (HSV-1 [7]),further results
"Nc1nc2c(ncn2COCCO)c(=O)[nH]1 [Acyclovir, reference compound]",–,–,–,–,–,–,–,–,–,–,–,–,–,–,–,–,"Simultaneous Treatment SI (HSV-1 [1]; ratio of CC50 to IC50): 430; Simultaneous Treatment IC50 (HSV-1 [1]; virus and compound added to cells simultaneously, CPE assay): 2.1 ± 0.3 µg/mL; IC50 (HSV-1 [1]; virus and compound added to cells simultaneously, CPE assay, read-out: Simultaneous Treatment IC50): 9.3 ± 1.3 µM; IC50 (HSV-1 [2]; Human alphaherpesvirus 1, compound added after virus adsorption and penetration, CPE assay): 0.4 µg/mL and 1.8 µM; Treatment of Infected Cells SI (HSV-1 [2]; ratio of CC50 to IC50): >2500"
retusin [Compound 3],–,–,–,–,–,–,–,–,–,–,–,–,–,–,–,–,"Dead [3]: 1.18 ± 0.24%; Early apop. [3]: 19.63 ± 0.79 %; Late apop./Dead [3]: 11.31 ± 0.49%; Live [3]: 67.89 ± 1.52 %; virucidal activity against HSV-1 by RT-PCR (in words) (HSV-1 [4]; 0.1, 1 and 10 µg/mL): did not demonstrate virucidal activity; inhibition of ROS formation in 6-OHDA-treated Neuro-2a cells (in words) [5]: considerably inhibited ROS formation; effect on mitochondrial membrane potential (in words) [6]: weak activity; virucidal activity against HSV-1 (in words) (HSV-1 [7]; CPE assay, virus pretreated with compound): did not show virucidal activity"
"COc1ccc([C@H]2COc3cc(O)ccc3[C@@H]2c2c(O)cc(O)cc2/C=C/c2ccc(O)c(O)c2)c(O)c1 [Compound 14, maackiapicevestitol]",18.4 ± 2.4,−0.30 ± 0.03,19.2 ± 2.5,−1.1 ± 0.1,significantly reduced the level of viral DNA,27.1 ± 3.8,−9.0 ± 1.2,81.2 ± 11%,46.6 ± 5.6%,0.195 ± 0.02%,0.09 ± 0.01,0.33 ± 0.04,2.7 ± 0.3,162 µg/mL and 316 µM,8.6 µg/mL and 16.7 µM,18.9 ± 2.8,–
"Oc1ccc2c(c1)OC[C@H]1c3cc4c(cc3O[C@@H]21)OCO4 [Compound 4, maackiain]",18.1 ± 2.2,0,19.0 ± 2.1,−0.9 ± 0.1,moderate anti-HSV-1 activity,20.7 ± 2.3,−2.6 ± 0.3,100%,53.6 ± 6.4%,16.5 ± 2.1%,0,0.3 ± 0.04,0.8 ± 0.1,152 µg/mL and 536 µM,28.3 µg/mL and 99.6 µM,5.4 and 5.4 ± 0.7,effect on viability of 6-OHDA-treated Neuro-2a cells (in words) [9]: weak effect on cell viability
